Publication PMC9442787, “A Modified Yeast Two-Hybrid Platform Enables Dynamic Control of Expression Intensities to Unmask Properties of Protein–Protein Interactions” (ACS Synthetic Biology, 2022)

How the values were obtained:
SiGID1b1 = biological target: T1, SiGID1b1 (Solanum lycopersicum, UniProt A0A3Q7J108); assay: adjustable yeast two-hybrid, mScarlet-I fluorescence; format: cell-based; conditions: interaction with PROCERA; estradiol/progesterone-titrated expression; 30 °C
T1 construct: gene GID1b-1; receptor fused to GAL4 BD (pBD-pZ-FLAG), PROCERA fused to GAL4 AD (pACT-Lex), in yeast Y190; with DELLA protein GAI (PROCERA)
T1 sequence (A0A3Q7J108 1-345): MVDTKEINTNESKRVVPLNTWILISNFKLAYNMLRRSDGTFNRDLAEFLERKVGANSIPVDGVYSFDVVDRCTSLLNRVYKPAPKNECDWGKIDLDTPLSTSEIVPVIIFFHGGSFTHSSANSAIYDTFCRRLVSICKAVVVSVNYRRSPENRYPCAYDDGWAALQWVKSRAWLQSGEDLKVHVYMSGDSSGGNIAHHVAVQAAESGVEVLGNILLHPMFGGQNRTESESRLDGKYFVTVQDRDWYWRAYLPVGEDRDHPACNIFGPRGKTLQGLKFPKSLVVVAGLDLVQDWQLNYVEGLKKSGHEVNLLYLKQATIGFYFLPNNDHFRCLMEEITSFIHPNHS
T1 sequence (Q7Y1B6 1-588 partner): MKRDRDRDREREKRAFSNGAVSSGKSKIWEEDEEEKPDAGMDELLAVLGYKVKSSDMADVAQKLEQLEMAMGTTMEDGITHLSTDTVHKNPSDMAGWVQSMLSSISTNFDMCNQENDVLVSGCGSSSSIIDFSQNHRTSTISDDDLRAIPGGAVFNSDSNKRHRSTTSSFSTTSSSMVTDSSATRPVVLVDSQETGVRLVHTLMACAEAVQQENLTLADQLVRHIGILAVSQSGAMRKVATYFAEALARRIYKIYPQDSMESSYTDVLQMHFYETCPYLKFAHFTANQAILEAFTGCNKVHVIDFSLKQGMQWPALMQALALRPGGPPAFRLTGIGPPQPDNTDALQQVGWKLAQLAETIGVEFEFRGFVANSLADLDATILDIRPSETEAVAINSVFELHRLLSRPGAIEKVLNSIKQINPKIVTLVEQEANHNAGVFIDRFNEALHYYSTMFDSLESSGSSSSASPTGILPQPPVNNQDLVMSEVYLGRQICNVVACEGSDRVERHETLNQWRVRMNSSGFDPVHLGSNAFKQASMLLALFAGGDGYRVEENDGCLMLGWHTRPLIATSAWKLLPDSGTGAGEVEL

PYL7 = PYL7 (Arabidopsis thaliana, UniProt Q1ECF1); conditions: interaction with PP2C (HAB1 or ABI1 not told); low inducer concentrations; 30 °C
Sequence of PYL7 (Q1ECF1 whole entry): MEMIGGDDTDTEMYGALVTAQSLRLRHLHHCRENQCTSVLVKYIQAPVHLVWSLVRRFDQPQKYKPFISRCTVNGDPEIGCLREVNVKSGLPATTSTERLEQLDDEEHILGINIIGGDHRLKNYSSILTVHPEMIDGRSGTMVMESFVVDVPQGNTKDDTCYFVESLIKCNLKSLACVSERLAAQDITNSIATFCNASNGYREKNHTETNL
Sequence of PYL7 (Q9CAJ0 whole entry partner): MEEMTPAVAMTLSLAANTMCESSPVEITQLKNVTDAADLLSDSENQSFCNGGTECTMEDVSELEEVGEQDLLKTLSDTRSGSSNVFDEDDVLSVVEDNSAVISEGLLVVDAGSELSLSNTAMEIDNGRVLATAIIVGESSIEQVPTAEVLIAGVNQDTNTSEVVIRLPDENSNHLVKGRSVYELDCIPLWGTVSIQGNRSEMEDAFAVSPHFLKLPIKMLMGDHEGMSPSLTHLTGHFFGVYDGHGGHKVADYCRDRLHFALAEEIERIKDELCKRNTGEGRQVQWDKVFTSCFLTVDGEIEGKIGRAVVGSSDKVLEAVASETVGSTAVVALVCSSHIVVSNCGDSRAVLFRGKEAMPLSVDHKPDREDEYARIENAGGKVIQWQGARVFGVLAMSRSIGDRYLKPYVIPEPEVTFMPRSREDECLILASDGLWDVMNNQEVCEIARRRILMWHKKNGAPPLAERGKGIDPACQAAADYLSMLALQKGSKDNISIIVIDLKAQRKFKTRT

maximal ratio of signal with ABA to mock (PYL7) | SMILES | adjustable yeast two-hybrid, mScarlet-I fluorescence (SiGID1b1)
 | C=C1C[C@]23C[C@@]1(O)CC[C@H]2[C@@]12C=C[C@H](O)[C@@](C)(C(=O)O1)[C@H]2[C@@H]3C(=O)O [GA3] | SiGID1b1 displayed full dependency on GA presence for interaction with SiPROCERA
4.9 | CC1=CC(=O)CC(C)(C)[C@@]1(O)/C=C/C(C)=C\C(=O)O [abscisic acid] | 
